The CheMixHub ionic liquid set
± gives the uncertainty stated by the source.

Assay: xn = mol fraction of the nth substance listed

SMILES: C[C@H](N)C(=O)[O-].C[N+](C)(C)CCO + O
- viscosity (287.97 K, 100 kPa, x1 = 0.2939): 177 ± 43 mPa·s
- viscosity (288.1 K, 100 kPa, x1 = 1): 5100 ± 1300 mPa·s
- viscosity (289.25 K, 100 kPa, x1 = 0.5975): 970 ± 240 mPa·s
- viscosity (289.31 K, 100 kPa, x1 = 0.692): 1467 ± 360 mPa·s
- viscosity (289.96 K, 100 kPa, x1 = 1): 3700 ± 1000 mPa·s
- viscosity (290.48 K, 100 kPa, x1 = 0.2939): 153 ± 37 mPa·s
- viscosity (290.53 K, 100 kPa, x1 = 0.7994): 1752 ± 440 mPa·s
- viscosity (292.92 K, 100 kPa, x1 = 0.097): 8.7 ± 2.1 mPa·s
- viscosity (292.92 K, 100 kPa, x1 = 0.4948): 490 ± 120 mPa·s
- viscosity (292.92 K, 100 kPa, x1 = 0.5975): 710 ± 180 mPa·s
- viscosity (292.92 K, 100 kPa, x1 = 0.692): 1030 ± 250 mPa·s
- viscosity (294.1 K, 100 kPa, x1 = 0.097): 8.4 ± 2 mPa·s
- viscosity (294.1 K, 100 kPa, x1 = 0.4948): 450 ± 110 mPa·s
- viscosity (294.1 K, 100 kPa, x1 = 0.692): 930 ± 230 mPa·s
- viscosity (294.1 K, 100 kPa, x1 = 0.7994): 1250 ± 310 mPa·s
- viscosity (295.27 K, 100 kPa, x1 = 0.7994): 1129 ± 280 mPa·s
- viscosity (296.45 K, 100 kPa, x1 = 0.4948): 377 ± 92 mPa·s
- viscosity (296.45 K, 100 kPa, x1 = 0.7994): 1016 ± 250 mPa·s
- viscosity (297.63 K, 100 kPa, x1 = 0.097): 7.4 ± 1.8 mPa·s
- viscosity (298.1 K, 101.3 kPa, x1 = 0.2727): 33 ± 6.6 mPa·s
- viscosity (298.81 K, 100 kPa, x1 = 0.2939): 90 ± 22 mPa·s
- viscosity (298.81 K, 100 kPa, x1 = 0.7994): 840 ± 210 mPa·s
- viscosity (299.98 K, 100 kPa, x1 = 0.097): 6.9 ± 1.6 mPa·s
- viscosity (299.98 K, 100 kPa, x1 = 0.3748): 156 ± 38 mPa·s
- viscosity (300.27 K, 100 kPa, x1 = 1): 1538 ± 390 mPa·s
- viscosity (301.16 K, 100 kPa, x1 = 0.692): 530 ± 130 mPa·s
- viscosity (302.34 K, 100 kPa, x1 = 0.3748): 135 ± 33 mPa·s
- viscosity (303.51 K, 100 kPa, x1 = 0.3748): 126 ± 30 mPa·s
- viscosity (303.51 K, 100 kPa, x1 = 0.7994): 580 ± 140 mPa·s
- viscosity (304.72 K, 100 kPa, x1 = 1): 1206 ± 300 mPa·s
- viscosity (305.86 K, 100 kPa, x1 = 0.3748): 109 ± 26 mPa·s
- viscosity (305.86 K, 100 kPa, x1 = 0.4948): 200 ± 48 mPa·s
- viscosity (305.86 K, 100 kPa, x1 = 0.8993): 680 ± 170 mPa·s
- viscosity (307.04 K, 100 kPa, x1 = 0.3748): 103 ± 25 mPa·s
- viscosity (307.04 K, 100 kPa, x1 = 0.5975): 254 ± 62 mPa·s
- viscosity (307.04 K, 100 kPa, x1 = 0.8993): 630 ± 150 mPa·s
- viscosity (313 K, 101.3 kPa, x1 = 0.1233): 5.7 ± 1.1 mPa·s
- viscosity (323.2 K, 100 kPa, x1 = 1): 337 ± 85 mPa·s
- viscosity (333 K, 101.3 kPa, x1 = 0.05881): 2.27 ± 0.46 mPa·s

SMILES: CC[N+](CC)(CC)CC.[Cl-] + NCCCO
- viscosity (293.15 K, 101.3 kPa, x2 = 0.8): 55.2 ± 2.7 mPa·s
- viscosity (293.15 K, 101.3 kPa, x2 = 0.8571): 46.6 ± 2.7 mPa·s
- viscosity (293.15 K, 101.3 kPa, x2 = 0.8889): 43.4 ± 2.4 mPa·s
- viscosity (298.15 K, 101.3 kPa, x2 = 0.8): 42.4 ± 2.6 mPa·s
- viscosity (298.15 K, 101.3 kPa, x2 = 0.8571): 35.8 ± 2.4 mPa·s
- viscosity (298.15 K, 101.3 kPa, x2 = 0.8889): 33.4 ± 2.1 mPa·s
- viscosity (303.15 K, 101.3 kPa, x2 = 0.8): 32.9 ± 2.3 mPa·s
- viscosity (303.15 K, 101.3 kPa, x2 = 0.8571): 27.9 ± 2.3 mPa·s
- viscosity (303.15 K, 101.3 kPa, x2 = 0.8889): 26.1 ± 2.1 mPa·s
- viscosity (308.15 K, 101.3 kPa, x2 = 0.8): 26.2 ± 2.2 mPa·s
- viscosity (308.15 K, 101.3 kPa, x2 = 0.8571): 22.3 ± 2.2 mPa·s
- viscosity (308.15 K, 101.3 kPa, x2 = 0.8889): 21 ± 2.1 mPa·s
- viscosity (313.15 K, 101.3 kPa, x2 = 0.8): 21.2 ± 2.1 mPa·s
- viscosity (313.15 K, 101.3 kPa, x2 = 0.8571): 18 ± 2.1 mPa·s
- viscosity (313.15 K, 101.3 kPa, x2 = 0.8889): 16.9 ± 2 mPa·s
- viscosity (318.15 K, 101.3 kPa, x2 = 0.8): 17.4 ± 2.1 mPa·s
- viscosity (318.15 K, 101.3 kPa, x2 = 0.8571): 14.8 ± 2.1 mPa·s
- viscosity (318.15 K, 101.3 kPa, x2 = 0.8889): 14 ± 2 mPa·s
- viscosity (323.15 K, 101.3 kPa, x2 = 0.8): 14.4 ± 2.1 mPa·s
- viscosity (323.15 K, 101.3 kPa, x2 = 0.8571): 12.3 ± 2.1 mPa·s
- viscosity (323.15 K, 101.3 kPa, x2 = 0.8889): 11.6 ± 2 mPa·s
- viscosity (328.15 K, 101.3 kPa, x2 = 0.8): 12.1 ± 2 mPa·s
- viscosity (328.15 K, 101.3 kPa, x2 = 0.8571): 10.4 ± 2 mPa·s
- viscosity (328.15 K, 101.3 kPa, x2 = 0.8889): 9.8 ± 2 mPa·s
- viscosity (333.15 K, 101.3 kPa, x2 = 0.8): 10.3 ± 2 mPa·s
- viscosity (333.15 K, 101.3 kPa, x2 = 0.8571): 8.8 ± 2 mPa·s
- viscosity (333.15 K, 101.3 kPa, x2 = 0.8889): 8.3 ± 2 mPa·s
